These are literature values, as cited in patent publication US20180179476A1, “SOLVENT COMPOSITIONS FOR USE AS HEPTANE REPLACEMENTS” (TBF ENVIRONMENTAL TECHNOLOGY INC., priority 2015, published 2018).

Structures are written as SMILES.

As to `COC(C)=O` [Methyl acetate], the stability result (in the presence of strong aqueous bases or aqueous acids) is on record as “not stable”. The solubility in water (room temperature) is recorded as 25%.
